Calls of active or inactive are those of the source. How the calls were made is not given here.
biological target: Furin (Homo sapiens) (UniProt P09958); assay: human furin inhibition, concentration series – biochemical, fluorescence intensity, IC50, dose response (AID 463182); settings: purified furin, fluorogenic peptide substrate cleavage
Sequence (P09958 108-714 limits assumed): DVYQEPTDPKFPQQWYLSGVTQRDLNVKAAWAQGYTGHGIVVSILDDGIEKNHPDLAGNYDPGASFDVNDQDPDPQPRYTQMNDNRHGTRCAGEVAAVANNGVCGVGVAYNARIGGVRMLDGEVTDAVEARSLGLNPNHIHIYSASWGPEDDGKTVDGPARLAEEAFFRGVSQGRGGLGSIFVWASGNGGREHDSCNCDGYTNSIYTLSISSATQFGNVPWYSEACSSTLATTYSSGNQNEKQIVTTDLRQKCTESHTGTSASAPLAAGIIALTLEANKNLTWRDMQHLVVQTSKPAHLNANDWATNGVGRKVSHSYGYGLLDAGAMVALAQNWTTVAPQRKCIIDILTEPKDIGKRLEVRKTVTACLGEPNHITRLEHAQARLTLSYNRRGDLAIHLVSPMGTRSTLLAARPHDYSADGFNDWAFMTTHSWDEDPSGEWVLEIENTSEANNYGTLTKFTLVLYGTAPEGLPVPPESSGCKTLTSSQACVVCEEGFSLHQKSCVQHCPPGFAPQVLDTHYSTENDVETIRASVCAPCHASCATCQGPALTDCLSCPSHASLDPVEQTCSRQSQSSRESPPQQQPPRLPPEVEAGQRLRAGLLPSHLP

IC50, inactive:
CC1(C)CC(=O)C(/C=N/n2cnc3ccccc3c2=O)=C(O)C1 > 50 µM, CC1(C)CC(=O)C(C=Nc2cccnc2)=C(O)C1 > 50 µM, Cc1cccc(/N=C/C2=C(O)CC(C)(C)CC2=O)n1 > 50 µM

Source: PubChem BioAssay AID463182 (University of Pittsburgh Molecular Library Screening Center, 2010)
